Data reported in patent US9872875B2, “Component and method for treating viral disease” (Institut Pasteur of Shanghai, Chinese Academy of Sciences, priority 2012, dated 2018).
Read-outs that look alike come from different tables or passages of the source.

Key:
RD cells = assay: Cytotoxicity to RD cells (Celltiter Glo); format: cell-based
Procedure: Cytotoxicity to RD cells at different E02 concentrations was measured using Celltitr Glo reagents as follows:
(1) Cells seeding: 24 h prior to testing, RD cells were seeded in 96-well cell culture plates at 5×10^4 per well;
(2) Cells incubated with E02: medium was removed from cell culture plates, 180 μl of DMEM containing 2% FBS was added, and then added 20 μl of DMEM solution with corresponding concentration of E02, placed in 37° C., 5% CO2 incubator for incubation;
(3) After cultured for 46 h, cellular ATP levels were measured using the PROMEGA Celltitr Glo reagents according to reagent instructions.
PPADS is an E02 analog (Khakh, Burnstock et al., 2001; Burnstock 2004; Coddou, Yan et al. 2011) and has a similar inhibitory effect on P2X subtypes to that of E02. RD cells were infected with EV71 clinical isolate FY 573 at different PPADS concentrations to determine the inhibitory effect of PPADS on EV71 replication. Detailed procedure is the same as that in “1” of Example 1. In addition, cytotoxicity to RD cells at each concentration of PPADS was determined. Detailed procedure is the same as that in “1” of Example 6.

EV71 = assay: Inhibition of EV71 replication in RD cells at 0.1, 1, 10 and 100 μM (CPE, crystal violet); format: cell-based, Enterovirus 71; conditions: Table 8, antagonists
Method in brief: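 RD cells infected with EV71 and treated at 0.1, 1, 10 and 100 μM were incubated 3˜4 days, crystal violet-stained and inspected microscopically for CPE. Cytotoxicity was checked in parallel by culturing uninfected RD cells with compound for 3˜4 days and examining cell-layer damage.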

P2X2 receptor = molecular target: T1, P2X2 receptor (Homo sapiens, UniProt Q9UBL9); conditions: cited from earlier work
T1 sequence (Q9UBL9 1-471): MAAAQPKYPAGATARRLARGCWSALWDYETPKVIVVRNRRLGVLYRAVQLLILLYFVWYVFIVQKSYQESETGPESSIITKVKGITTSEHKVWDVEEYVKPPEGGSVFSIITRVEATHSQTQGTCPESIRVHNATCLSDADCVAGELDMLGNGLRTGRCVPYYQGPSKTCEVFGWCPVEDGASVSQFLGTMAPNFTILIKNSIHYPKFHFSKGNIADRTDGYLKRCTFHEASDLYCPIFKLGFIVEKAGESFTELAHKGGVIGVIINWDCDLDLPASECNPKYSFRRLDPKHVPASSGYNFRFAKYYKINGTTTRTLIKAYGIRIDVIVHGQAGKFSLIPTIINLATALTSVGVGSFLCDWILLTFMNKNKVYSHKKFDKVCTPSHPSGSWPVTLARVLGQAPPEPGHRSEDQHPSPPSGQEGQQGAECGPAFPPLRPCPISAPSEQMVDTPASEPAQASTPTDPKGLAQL

P2X5 receptor = P2X5 receptor (Homo sapiens, UniProt Q93086); conditions: Table 8, antagonists; cited from earlier work
Sequence of P2X5 receptor (Q93086 whole entry): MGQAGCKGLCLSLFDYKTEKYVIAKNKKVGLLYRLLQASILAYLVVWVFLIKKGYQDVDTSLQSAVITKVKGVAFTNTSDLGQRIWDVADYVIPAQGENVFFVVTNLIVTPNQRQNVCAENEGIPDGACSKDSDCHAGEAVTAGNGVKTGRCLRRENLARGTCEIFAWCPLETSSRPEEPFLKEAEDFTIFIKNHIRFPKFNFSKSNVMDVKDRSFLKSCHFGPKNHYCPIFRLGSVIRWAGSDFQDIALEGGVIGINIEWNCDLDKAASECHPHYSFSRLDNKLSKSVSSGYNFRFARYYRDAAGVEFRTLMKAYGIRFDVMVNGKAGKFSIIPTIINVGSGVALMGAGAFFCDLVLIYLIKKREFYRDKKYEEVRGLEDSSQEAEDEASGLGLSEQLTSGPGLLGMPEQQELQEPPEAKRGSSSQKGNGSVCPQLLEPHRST

P2X6 receptor = P2X6 receptor (Homo sapiens, UniProt O15547); design: key: −: no activity; +: activating concentration >10 μM; ++: activating concentration 1~10 μM; +++: activating concentration <1 μM; conditions: Table 8, antagonists; cited from earlier work
Sequence of P2X6 receptor (O15547 whole entry): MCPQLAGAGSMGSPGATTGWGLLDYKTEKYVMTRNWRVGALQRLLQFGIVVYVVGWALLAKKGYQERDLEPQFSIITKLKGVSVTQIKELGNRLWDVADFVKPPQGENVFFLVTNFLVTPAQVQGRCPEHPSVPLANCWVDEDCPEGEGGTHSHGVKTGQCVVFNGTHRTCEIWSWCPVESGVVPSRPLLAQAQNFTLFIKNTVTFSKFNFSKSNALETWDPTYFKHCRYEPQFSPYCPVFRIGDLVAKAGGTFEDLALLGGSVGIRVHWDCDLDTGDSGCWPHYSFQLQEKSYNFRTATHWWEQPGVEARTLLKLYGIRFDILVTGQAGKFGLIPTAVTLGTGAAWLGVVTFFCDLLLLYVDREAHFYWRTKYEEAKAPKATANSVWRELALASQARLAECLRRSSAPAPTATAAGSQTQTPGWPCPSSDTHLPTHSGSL

P2X7 receptor = molecular target: T2, P2X7 receptor (Homo sapiens, UniProt Q99572); conditions: Table 8, antagonists; cited from earlier work
T2 sequence (Q99572 1-595): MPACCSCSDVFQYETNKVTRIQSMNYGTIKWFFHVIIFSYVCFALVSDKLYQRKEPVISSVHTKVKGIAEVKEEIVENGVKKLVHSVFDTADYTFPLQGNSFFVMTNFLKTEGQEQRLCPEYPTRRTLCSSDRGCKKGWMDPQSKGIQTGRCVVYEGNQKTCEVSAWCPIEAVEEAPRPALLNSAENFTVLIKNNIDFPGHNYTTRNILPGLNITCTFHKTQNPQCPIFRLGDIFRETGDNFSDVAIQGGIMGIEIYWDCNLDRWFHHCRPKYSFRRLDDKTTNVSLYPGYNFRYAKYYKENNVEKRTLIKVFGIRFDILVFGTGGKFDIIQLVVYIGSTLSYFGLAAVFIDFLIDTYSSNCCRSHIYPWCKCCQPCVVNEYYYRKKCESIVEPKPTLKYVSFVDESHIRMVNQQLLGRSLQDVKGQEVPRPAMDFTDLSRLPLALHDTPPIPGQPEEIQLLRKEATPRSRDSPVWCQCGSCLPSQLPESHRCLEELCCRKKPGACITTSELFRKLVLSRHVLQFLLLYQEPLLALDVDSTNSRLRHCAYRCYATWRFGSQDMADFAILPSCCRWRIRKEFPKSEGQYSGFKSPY

For `Cc1ccc(C(=O)Nc2ccc(S(=O)(=O)O)c3cc(S(=O)(=O)O)cc(S(=O)(=O)O)c23)cc1NC(=O)c1cccc(NC(=O)Nc2cccc(C(=O)Nc3cc(C(=O)Nc4ccc(S(=O)(=O)O)c5cc(S(=O)(=O)O)cc(S(=O)(=O)O)c45)ccc3C)c2)c1` [E02, Suramin Sodium], the “cytotoxicity to RD cells” value (RD cells; 1×10^−6 to 1×10^4 μM of E02, 46 h, cellular ATP) is listed as “no cytotoxicity”, the “Inhibition of EV71 replication” value (EV71) is listed as “+ (+: inhibitory concentration >300 nM)” and the “P2X receptors 2” value (P2X2 receptor) is listed as “+ (key: −: no activity; +: inhibitory concentration >300 nM; ++: inhibitory concentration = 10~300 nM; +++: inhibitory concentration <10 nM)”. For the same compound, the “P2X receptors 5” value (P2X5 receptor) was “++ (++: inhibitory concentration = 10~300 nM)”, the “P2X receptors 6” value (P2X6 receptor) was “−” and the “P2X receptors 7” value (P2X7 receptor) was “−”.
For `Cc1nc(N=Nc2ccc(S(=O)(=O)O)cc2S(=O)(=O)O)c(COP(=O)(O)O)c(C=O)c1O` [PPADS, pyridoxal-phosphate-6-azophenyl-2′, 4′-disulphonic acid], the “concentrations not cytotoxic to RD cells” value (RD cells; PPADS) is listed as “lower than 64 μM”, the “Inhibition of EV71 replication” value (EV71) is listed as “+ (+: inhibitory concentration >300 nM)” and the “P2X receptors 2” value (P2X2 receptor; Table 8, antagonists) is listed as “++ (++: inhibitory concentration = 10~300 nM)”. For the same compound, the “P2X receptors 5” value (P2X5 receptor) was “++ (++: inhibitory concentration = 10~300 nM)”, the “P2X receptors 6” value (P2X6 receptor) was “+ (+: inhibitory concentration >300 nM)” and the “P2X receptors 7” value (P2X7 receptor) was “+ (+: inhibitory concentration >300 nM)”.
